Assay results as given in PubChem BioAssay (NCI).
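These data come from cells grown in 96-well plates and exposed to compound for 48 hours at five concentrations. The concentration for 50% growth inhibition is given as GI50. TGI marks complete inhibition of growth.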 Numbered stars: 1 amine (or outer) side, 2 acyl side, 3 side chain; on linkers, the order of the positions; unused ones are H or OH. Bridge positions count the residues as written; N and C are the ends. Square brackets hold non-standard residues; d marks the D form. Peptide text beside a SMILES is read from it. I, II: the chains in the order shown. Actinocin(1to9) = Cc1c2oc3c(C)ccc(C(=O)[*:2])c3nc-2c(C(=O)[*:1])c(N)c1=O; NMeY = CN[CH](Cc1ccc(O)cc1)C(=O)O; Sar = CNCC(=O)O

Tests used:
Assay in all cases: NCI tumour cell line growth inhibition, 48 h
KM20L2 colon = system: KM20L2 colon
LXFL 529 NSCLC = system: LXFL 529 NSCLC
MDA-N = system: MDA-N
DLD-1 colon = system: DLD-1 colon
RXF-631 renal = system: RXF-631 renal
DMS 114 small cell lung = system: DMS 114 small cell lung
HOP-18 NSCLC = system: HOP-18 NSCLC
DMS 273 small cell lung = system: DMS 273 small cell lung
XF 498 CNS = system: XF 498 CNS
SN12K1 renal = system: SN12K1 renal
P388/ADR leukemia = system: P388/ADR leukemia

SMILES | TGI (KM20L2 colon) | TGI (LXFL 529 NSCLC) | TGI (MDA-N) | TGI (DLD-1 colon) | TGI (DMS 114 small cell lung) | TGI (HOP-18 NSCLC) | TGI (DMS 273 small cell lung) | TGI (XF 498 CNS) | other results
O=C([O-])CC(=O)[O-].[NH-][C@@H]1CCCC[C@H]1[NH-].[Pt+4] | > 100 µM | > 100 µM | > 100 µM |  |  |  |  |  | GI50 (LXFL 529 NSCLC): 25.2 µM; GI50 (MDA-N): 19.9 µM
CC(SCc1ccccc1)C(=O)O (stereo unspecified) |  |  | > 100 µM |  |  |  |  |  | 
COc1cc2cnc3c4cc(OCc5ccccc5)ccc4ccc3c2cc1OC | > 100 µM | > 100 µM |  | > 100 µM | 80.4 µM | > 100 µM |  |  | TGI (RXF-631 renal): 98.8 µM
CNC(=O)CN(CC(=O)O)C(=O)NC |  | > 100 µM |  | > 100 µM |  |  | > 100 µM | > 100 µM | TGI (RXF-631 renal): > 100 µM
C[C@@H]1CC[C@@]2(NC1)O[C@H]1C[C@H]3[C@@H]4CC[C@H]5C[C@@H](O)CC[C@]5(C)[C@H]4CC[C@]3(C)[C@H]1[C@@H]2C |  |  | > 100 µM |  |  |  |  |  | 
CCC(CO)Nc1nc2c(c(=O)n(C)c(=O)n2C)n1CCO (stereo unspecified) | > 100 µM | > 100 µM |  |  |  |  | > 100 µM |  | 
C=C1C(OC(C)=O)CC(OC(C)=O)C2(C)C(OC(C)=O)C(OC(C)=O)C3=C(C)C(OC(=O)/C=C/c4ccccc4)CC(C(OC(C)=O)C12)C3(C)C (stereo unspecified) | > 100 µM | > 100 µM |  | > 100 µM | > 100 µM | > 100 µM | > 100 µM |  | TGI (RXF-631 renal): > 100 µM
COc1ccc2c(c1)CCc1c-2n[nH]c1-c1[nH]nc2c1CCc1cc(OC)ccc1-2 | > 100 µM | > 100 µM |  | > 100 µM | > 100 µM | 98.5 µM | 52.8 µM | 71.2 µM | 
COc1ccc2c(c1)CN1CCc3c(cc(OC)c(OC)c3OC)C1C2 (stereo unspecified) | > 100 µM | > 100 µM |  | > 100 µM | > 100 µM | > 100 µM | > 100 µM | > 100 µM | 
NC(Cc1ccccc1)c1nccs1 (stereo unspecified) |  |  | > 100 µM |  |  |  |  |  | 
COc1ccc(OC(C)C(=O)O)c2c(=O)ccccc12 (stereo unspecified) | > 100 µM | > 100 µM |  | > 100 µM | > 100 µM |  | > 100 µM | > 100 µM | TGI (RXF-631 renal): > 100 µM
COc1cc(/C=N/N=C(\N)NO)c([N+](=O)[O-])cc1OC | > 100 µM | > 100 µM |  | > 100 µM | 46.2 µM | > 100 µM | > 100 µM |  | TGI (RXF-631 renal): > 100 µM
O=c1/c(=N\Nc2ccccc2)c2cccc3ccc4cccc1c4c32 |  |  | > 100 µM |  |  |  |  |  | 
CC[PH+](CC)CC.[Cl][Au] | 8.73 µM | 1.07 µM |  | 2.93 µM |  | 3 µM | 22.1 µM | 2.67 µM | GI50 (DLD-1 colon): 1.28 µM; GI50 (DMS 273 small cell lung): 4.77 µM; GI50 (KM20L2 colon): 4.25 µM; GI50 (LXFL 529 NSCLC): 0.481 µM; GI50 (XF 498 CNS): 1.37 µM; GI50 (HOP-18 NSCLC): 1.64 µM
CCC1=C(CC2NCCc3ccccc32)CC2c3cc(OC)c(OC)cc3CCN2C1 (stereo unspecified) | 26.5 µM | > 100 µM | 8.25 µM | > 100 µM |  |  | 3.02 µM | 13 µM | TGI (RXF-631 renal): 4.44 µM
CCC[CH2][Sn]1([CH2]CCC)[S]CC[N]1S(=O)(=O)c1ccc(C)cc1 | 4.46 µM | 1.12 µM |  | 2.99 µM | 2.09 µM |  | 3.16 µM |  | GI50 (DLD-1 colon): 1.58 µM; GI50 (DMS 273 small cell lung): 1.65 µM; GI50 (KM20L2 colon): 2.27 µM; GI50 (LXFL 529 NSCLC): 0.33 µM; GI50 (DMS 114 small cell lung): 0.659 µM
CCCCN(CCCC)CC(C(C)=O)C(c1ccccc1)c1c(O)c2ccccc2oc1=O (stereo unspecified) | > 100 µM | > 100 µM |  | > 100 µM | > 100 µM | > 100 µM | > 100 µM | > 100 µM | TGI (RXF-631 renal): > 100 µM
CC(=O)NN1C(=O)C(Cc2ccccc2)c2ccccc21 (stereo unspecified) | > 100 µM |  |  | > 100 µM | > 100 µM | > 100 µM | > 100 µM | > 100 µM | TGI (RXF-631 renal): > 100 µM
O/N=C/c1ccc(O)c(O)c1 | > 100 µM | > 100 µM |  | > 100 µM | > 100 µM |  | > 100 µM | > 100 µM | 
CN(N)c1nc(N)c(C#N)c(C#N)c1C#N |  |  | > 10 µM |  |  |  |  |  | 
COc1cc(C(=O)c2cocc2C(=O)c2ccc3c(c2)OCO3)cc(OC)c1OC |  | > 31.6 µM | 0.311 µM | > 100 µM | > 100 µM | > 100 µM | > 100 µM | 32.1 µM | 
COC(C)C(O)(C(=O)OCC1=CCN2CCC(O)C12)C(C)(C)O (stereo unspecified) |  |  | > 100 µM |  |  |  |  |  | 
O=C(O)c1ccc(SSc2ccc(C(=O)O)cn2)nc1 |  |  | > 100 µM |  |  |  |  |  | 
CC1=NOC(=O)/C1=C/c1ccc2c(c1)OCO2 |  |  | 85.7 µM |  |  |  |  |  | 
COc1ccc(CC2C(=O)OC(C)C(NC(=O)c3c4nc5c(C(=O)NC6C(=O)NC(C(C)C)C(=O)N7CCCC7C(=O)N(C)CC(=O)N(C)C(Cc7ccc(OC)cc7)C(=O)OC6C)ccc(C)c5oc-4c(C)c(=O)c3N)C(=O)NC(C(C)C)C(=O)N3CCCC3C(=O)N(C)CC(=O)N2C)cc1 (stereo unspecified) (I: TVP[Sar][NMeY](Me) / II: TVP[Sar][NMeY](Me); ester I:1-I:C, II:1-II:C; linker I:N-II:N via Actinocin(1to9); configuration not given here) |  |  | 0.218 µM |  |  |  |  |  | 
C[C@]12C[C@H](O)[C@H]3[C@@H](CCC4=CC(=O)CC[C@@]43C)[C@@H]1CC[C@@H]2c1csc(-c2ccccc2)n1 |  |  | > 100 µM |  |  |  |  |  | 
CCOC(=O)/C=C/c1cccc(F)c1 |  |  | > 100 µM |  |  |  |  |  | 
O=C[C@@H](CO)O[C@H](C=O)n1cnc2c(=O)[nH]cnc21 | 2130 µM |  | 1610 µM | 395 µM | 202 µM | 1670 µM | 1570 µM | 1690 µM | TGI (SN12K1 renal): 1570 µM; TGI (P388/ADR leukemia): 257 µM
